We go through one compound from patent EP4701641B1, “5-AMINO-2,3-DIHYDRO-1,4-PHTHAL[…] THE PROPHYLAXIS AND TREATMENT OF […]” (MetrioPharm AG, priority 2023, dated 2025).

The structures appear in SMILES notation. Read-outs that look alike come from different tables or passages of the source.

For one series, the system named is D-dimer. Particulars: for D-dimer concentration (median of the group): plasma. An excerpt: The study was randomized, double-blind, and placebo-controlled, with enrollment at 20 IEC (independent ethics committee)-approved sites across six countries (Bulgaria, France, Hungary, Italy Romania, Spain); a list of all participating sites is published on clinicaltrials.gov. (NCT04932941). This study was partially funded by the COVID-19 Horizon Europe work programme (Project No.: 101046182). The funder of the study had no role in study design, data collection, data analysis, data interpretation, or writing of the report.
Further details on the in- and exclusion criteria are available on cliniclatrials.gov NCT04932941.
Stratification factors included baseline COVID-19 severity and age-class (aged ≤ 65 years versus > 65 years).
Patients were treated for 28 days. […] These patients were discharged from the hospital before and received medication (verum or placebo) for continuing self-treatment for the remaining time at home. After 60 days there was a follow-up visit.
The D-dimer level is an important prognostic marker for COVID-19 severity. An elevated D-dimer level is associated with thromboembolic complications. For monitoring the development of this biomarker throughout the study blood samples were taken at Days 1, 7, 14, 21, 28 and 60. The D-dimer concentration was determined (PPD Central Lab, Zaventem, Belgium) from the plasma by means of monoclonal antibodies quantified in an ELISA (cf. Olson (2015) Adv Clin Chem 69: 1 - 46; Johnson et al. (2019) Am J Hematol 94: 833-839).

Series [1] relates to Coronary artery smooth muscle cells. Particulars: added 1 hour before stimulation with IL-1β, TNF-α and IFN-γ, 48 hours in culture, triplicates averaged. On the procedure: Coronary artery smooth muscle cells pooled from human donors (n = 3) were commercially acquired and cultured according to the recommendations of the manufacturer. They were stimulated with IL-1β, TNF-α and IFN-γ to emulate conditions of vascular inflammation. The […] were cultured in 96 well-plates until confluence. Details are described in Kunkel et al. (2004) FASEB J 18: 1279-1281). […] The substance was added at the indicated concentration 1 hour before stimulation and remained in culture for 48 hours. Each plate contained positive and negative controls (non-stimulated cells) as well as vehicle controls (buffer solution). Direct ELISA (enzyme-linked immunosorbent assay) was used to measure thrombomodulin levels. Soluble factors from supernatants were quantified using capture ELISA.
Measurements were carried out in triplicates which were then averaged and divided by the average of vehicle control samples. Vehicle control samples were taken as 100%.

Series [2] relates to hospitalized patients with moderate to severe COVID-19.
The test system of a further series is SARS-CoV-2. Particulars: SARS-CoV-2 infected cells; from WO 2021/249667; cited from earlier work.

As to `Nc1cccc2c(=O)[nH][nH]c(=O)c12.[Na]` [5-amino-2,3-dihydro-1,4-phthalazinedione sodium salt], the “D-dimer concentration (median of the group)” value with D-dimer (day 60 (follow-up visit)) amounted to 138.0 ng/mL DDU; in the series on D-dimer (treatment day 1, 300 mg BID plus SoC), 235.5 ng/mL DDU; in the series with D-dimer (treatment day 7, 300 mg BID plus SoC), 205.0 ng/mL DDU; in the series with D-dimer (treatment day 14, 300 mg BID plus SoC), 171.0 ng/mL DDU; with D-dimer (treatment day 21, 300 mg BID plus SoC), 208.0 ng/mL DDU; in the series with D-dimer (treatment day 28, 300 mg BID plus SoC), 172.0 ng/mL DDU. Also, in the series with D-dimer (post-hoc analysis, modelled, p<0.001, Fig. 1), the “modelled effect on D-dimer levels compared to placebo” value is recorded as “significant decrease”. Further, the “thrombomodulin release (vehicle control = 100%)” value in series [1] (62.5 µM) stood at 127.4%; in series [1] (250 µM), 115.1%; in series [1] (1 mM), 159.6%; in series [1] (4 mM) it was 255.9%. The “disease resolution by Day 14 (patients)” value in series [2] (300 mg BID plus SoC, placebo group 31/43) was 69/82. For the same compound, the “effect on hemostasis (clinical parameters or adverse side effects)” value in series [2] (clinical study in COVID-19 patients) is “no evidence”. Also, the “replication of the virus” value with SARS-CoV-2 is on record as “suppress dose-dependently”.
